Measurements from patent publication US20250042884A1, “3-ARYLOXYL-3-FIVE-MEMBERED HETEROARYL PROPYLAMINE COMPOUND AND USE THEREOF” (Shanghai Leado Pharmatech Co. Ltd., priority 2018, published 2025).
Like-named read-outs stand apart in the source and are kept apart here.

Columns and labels:
SD rats = assay: Rat SNL model, mechanical allodynia test (nerve pain); format: in vivo; conditions: 1 h after administration, 10 mg/kg oral, hydrochloride salt; control group 3.967 ± 0.775
Experimental: Male SPF grade SD rats, weighed 150 g-180 g, were selected. Aseptic operation during surgery was performed. The animals were anesthetized with sodium pentobarbital (50 mg/kg, intraperitoneal injection). The surgical area of animal waist was shaved and the skin was disinfected three times with iodophor and 70% ethanol. After the skin was dried, the operation was started. Surgical knife was used to make a longitudinal incision at the back of the sacrum of the animal waist to expose the left paraspinal muscles, and stretcher was used to separate muscle tissue to expose the spine. The left spinal nerves L5 and L6 were separated and ligated with a 6-0 silk thread, and the wound was sutured. After the operation, the animals were placed on electrothermal pad, and 5 mL of saline was injected subcutaneously to prevent dehydration. After the animals were fully awakened and could move around freely, the animals were put back in the cage.
After the operation, the animals were adapted in the experimental environment for 15min/day for 3 days.
The animals were weighed to calculate the dose. […] After administration, mechanical allodynia test was performed. The rat was individually placed in a plexiglass box with a grid on the bottom of the box to ensure that the rat claw could be tested. The rats were allowed to adapt the environment for 15 min before test. After the adaptation was completed, the test fiber was used to test the center of the left hind claw of the rat. The test fiber comprises 8 test strengths: 3.61 (0.4 g), 3.84 (0.6 g), 4.08 (1 g), 4.31 (2 g), 4.56 (4 g), 4.74 (6 g), 4.93 (8 g), and 5.18 (15 g). […] During the test, rapid withdrawal of animal claw was recorded as pain response. When the test fiber was removed from animal skin, the withdrawal of animal claw was also recorded as pain response. If animal moved, the pain response was not recorded, and the test was repeated. […]
Mechanical allodynia was expressed as withdrawal threshold (PWT) in rat behavioral test, which was calculated with the following formula: […]

SH-SY5Y cells = assay: Cytotoxicity test (CCK-8), neurotoxicity; format: cell-based; conditions: Homo sapiens, 72 h
Experimental: In this example, hepatotoxicity and neurotoxicity of compound I-1 and S-duloxetine were detected.
HepG-2 and SH-SY5Y cells were placed in 10 cm dish and cultured at 37° C., 5% CO2 in a cell incubator. Trypsin was used to digest and resuspend cells and cells were counted. The cells were transferred to 96-well plate with 8000 cells in a well (100 μl/well), cultured at 37° C., 5% CO2 in a cell incubator for 24 hrs. A serial of gradient concentration dilutions of compound I-1 (prepared in example 2 of the present invention) with 2-fold dilution were prepared, and the system was 100 μL/well. The supernatant of cell culture system in the 96-well plate was removed on the first day, and fresh-prepared drug concentration system was add into culture plate wells (duplicate wells were set). The cells were cultured at 37° C., 5% CO2 in a cell incubator for 72 h. […] Microplate reader was used to measure the absorbance at 450 nm. Data was processed to calculate cytotoxicity, and IC50 was calculated by GraphPad Prism. […]
A (Dosing): the absorbance of wells containing cells, CCK-8 solution and drug solution.
A (control): the absorbance of wells containing medium and CCK-8 solution and without cells.
A (0 Dosing): the absorbance of wells containing cells and CCK-8 solution but without drug solution […]

Sprague-Dawley rats = assay: Rat hot plate pain model (acute pain); format: in vivo; conditions: 30 mg/kg intraperitoneal, hydrochloride salt
Experimental: Sprague-Dawley male, mature and unmated rats were placed at hot and cold plate (product model: PE34, US IITC) with constant 53±0.1° C. Mice with painful response such as licking claw, shaking claw or slightly jumping within 10-30 s were selected, and mice which evaded and jumped were abandoned. […] The test compound was freshly prepared on the day of administration. 0.9% NaCl physiological saline solution was prepared as solvent for later use. Appropriate amount of test compound was added into required volume of physiological saline and fully suspended, and the concentration of prepared drug was 1 mg/ml. […] After administration, the latency of heat pain was measured at 0.5 h, 1 h and 2 h after administration. In order to prevent animals from being scalded on the hot plate, the maximum incubation time was set to 30 s. Maximum possible effect (MPE) % was used to evaluate analgesic effect of each compound, i.e., MPE %=[(Post drug latency−baseline latency)/(30−baseline latency)]×100. MPE % at different time points was recorded.

TRPA1 = TRPA1 (Mus musculus (Mouse), UniProt Q8BLA8); assay: IonWorks Barracuda (IWB) automated patch clamp detection of TRPA1 inhibitory activity; format: cell-based; conditions: for IC50: HEK293 cells stably expressing TRPA1
TRPA1, sequence (Q8BLA8 whole entry): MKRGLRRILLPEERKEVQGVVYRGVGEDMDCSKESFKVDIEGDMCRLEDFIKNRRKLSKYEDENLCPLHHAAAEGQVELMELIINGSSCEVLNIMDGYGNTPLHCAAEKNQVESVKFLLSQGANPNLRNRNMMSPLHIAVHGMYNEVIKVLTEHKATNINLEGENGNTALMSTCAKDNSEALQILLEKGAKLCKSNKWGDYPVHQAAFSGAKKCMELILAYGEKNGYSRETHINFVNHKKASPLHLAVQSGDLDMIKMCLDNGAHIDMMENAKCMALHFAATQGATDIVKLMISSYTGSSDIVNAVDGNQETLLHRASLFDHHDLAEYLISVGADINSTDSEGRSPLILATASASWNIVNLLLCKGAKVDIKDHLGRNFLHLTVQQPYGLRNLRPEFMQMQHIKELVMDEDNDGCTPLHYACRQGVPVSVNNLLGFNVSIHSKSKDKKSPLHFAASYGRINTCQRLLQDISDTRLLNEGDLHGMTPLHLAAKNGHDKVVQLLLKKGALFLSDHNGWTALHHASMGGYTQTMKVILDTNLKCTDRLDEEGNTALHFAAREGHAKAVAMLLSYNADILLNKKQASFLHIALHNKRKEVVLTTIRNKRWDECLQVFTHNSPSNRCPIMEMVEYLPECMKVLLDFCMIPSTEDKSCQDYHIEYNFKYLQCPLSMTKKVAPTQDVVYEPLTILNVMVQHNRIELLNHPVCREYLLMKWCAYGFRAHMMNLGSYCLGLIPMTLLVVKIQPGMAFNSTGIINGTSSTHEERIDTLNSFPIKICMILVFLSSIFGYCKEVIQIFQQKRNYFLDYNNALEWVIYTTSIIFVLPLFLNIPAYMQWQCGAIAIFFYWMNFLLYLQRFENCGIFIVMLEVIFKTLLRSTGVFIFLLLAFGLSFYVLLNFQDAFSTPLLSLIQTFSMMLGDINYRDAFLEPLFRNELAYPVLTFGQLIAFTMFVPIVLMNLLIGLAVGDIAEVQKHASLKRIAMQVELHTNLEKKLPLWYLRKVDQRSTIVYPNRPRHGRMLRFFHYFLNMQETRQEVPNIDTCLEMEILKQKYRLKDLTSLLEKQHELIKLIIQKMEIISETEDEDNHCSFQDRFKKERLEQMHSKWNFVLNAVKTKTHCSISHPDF
Experimental: The inhibitory activity of some compounds in the examples of the present invention (as shown in Table 1) on transient receptor potential channel protein TRPA1 was tested in this example. The compound of formula A (WO2010075353) was used as a positive control compound: […]
Ion Works Barracuda (IWB) automated patch clamp detection was used as test method: HEK293 cells stably expressing TRPA1 were placed in DMEM medium containing 15 μg/mL Blasticidin S HCl, 200 μg/mL Hygromycin B and 10% FBS in the T175 culture flask, and cultured in 37° C., 5% CO2 incubator. When the cell density reached about 80%, the culture medium was removed, rinsed with phosphate buffered saline (PBS) without calcium and magnesium. 3 mL of Trypsin was added to digest for 2 min, 7 mL of culture medium was added to terminate the digestion. The cells were collected to 15 mL centrifuge tube and centrifuged at 800 rpm for 3 min. After the supernatant was removed, the cells were added to appropriate volume of extracellular fluid for re-suspending, and the cell density was controlled at 2-3×10^6/mL for IWB experiment. Extracellular fluid formulation (in mM): 140 NaCl, 5 KCl, 1 MgCl2, 10 HEPES, 0.5 EGTA, 10 Glucose (pH 7.4); intracellular fluid formulation (in mM): 140 CsCl, 10 HEPES, 5 EGTA, 0.1 CaCl2, 1 MgCl2 (pH 7.2). 28 mg/mL of amphotericin B was freshly prepared with DMSO on the day of experiment, and then final concentration of 0.1 mg/mL was prepared with intracellular fluid.
Population patch clamp (PPC) plate was used in IWB experiment. The entire detection process was automatically carried out by the instrument. Extracellular fluid was added into 384 wells of PPC plate, and 6 µL of the intracellular fluid was added into plenum (under the PPC plate), 6 µL of cell fluid was added for sealing test, and finally the intracellular fluid in plenum was replaced with amphotericin B-containing intracellular fluid to establish a whole-cell recording mode after perforating sealed cells. The sampling frequency for recording TPRA1 current was 10 kHz, the cells were clamped at 0 mV, the voltage stimulation command (channel protocol) was a ramp voltage from −100 mV to +100 mV for 300 ms. This voltage stimulation was applied every 10 s, mTRPA1current was induced by 300 µM AITC.
Data recording and current amplitude measurement export were carried out by IWB software (version 2.5.3, Molecular Devices Corporation, Union City, CA). No statistics was recorded for holes with sealing impedance lower than 20 MQΩ. The original current data was corrected by software for leakage reduction. TRPA1 current amplitude was measured at +100 mV. […] If IC50 value of HC030031 exceeded 3 times the average IC50 value previously obtained on each plate, it would be re-tested. The dose-effect curve of compounds and IC50 were fitted and calculated by GraphPad Prism 5.02 (GraphPad Software, San Diego, CA).
Some compounds in the examples of the present invention were detected by lonWorks Barracuda (IWB) automated patch clamp detection method for IC50 inhibitory activity.

For `CNCC[C@@H](Oc1cccc2ccoc12)c1cccs1` [Compound I-1, (R)-3-(benzofuran-7-yloxy)-N-methyl-3-(thiophen-2-yl)propyl-1-amine], the “PWT(g), claw withdrawal threshold” value (SD rats) was 7.869 ± 2.846 g, the IC50 (SH-SY5Y cells) was roughly 101 µM and the MPE % (Sprague-Dawley rats; 0.5 h after administration) was 14.51 ± 6.87%. It also gave an MPE % (Sprague-Dawley rats; 1 h after administration) of 38.03 ± 5.66%, an MPE % (Sprague-Dawley rats; 2 h after administration) of 31.92 ± 6.79% and an IC50 (TRPA1; FIG. 1, read-out: IC50 on TRPA1, automated patch clamp) of 2.06 µM. The IC50 (TRPA1; current induced by AITC, read-out: IC50 (μM), inhibitory activity on TRPA1 in the automated patch clamp detection test) was 1 to 5 µM and the “activity ratio, IC50 of compound C2/IC50 of compound I-1” value (TRPA1; TRPA1, automated patch clamp) was “about 6.3”.
